The target in this assay is T1, Human Polymorphonuclear Leukocyte Elastase (Homo sapiens, UniProt P08246).
T1 construct: Crude extract of human polymorphonuclear leukocytes (PMN) containing elastase activity; endogenous in cells; host or cells: human polymorphonuclear leukocytes (crude extract)
T1 sequence (P08246 30-247 limits assumed): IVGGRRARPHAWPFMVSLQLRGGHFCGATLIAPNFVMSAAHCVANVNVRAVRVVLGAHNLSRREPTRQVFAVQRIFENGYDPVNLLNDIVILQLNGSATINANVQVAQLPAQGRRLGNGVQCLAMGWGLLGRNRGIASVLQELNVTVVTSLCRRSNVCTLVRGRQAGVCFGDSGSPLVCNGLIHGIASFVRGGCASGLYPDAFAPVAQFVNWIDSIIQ
As to the kind of experiment: Inhibition of human polymorphonuclear leukocyte elastase via hydrolysis of N-t-Boc-alanyl-alanyl-prolyl-alanine-p-nitroanilide. Type of assay: biochemical. Conditions: 50% inhibition of enzyme activity 2 minutes after zero time, crude PMN extract, Boc-AAPAN substrate, pH 7.5. The method, then:
Enzyme Assays for the Inhibition of Human Polymorphonuclear Leukocyte Elastase Via Hydrolysis of N-t-Boc-alanyl-alanyl-prolylalanine-p-nitroanilide
0.05M TES (N-tris[hydroxymethyl]methyl-2-amino-ethanesulfonic acid) buffer, pH 7.5.
0.2 mM N-t-Boc-alanyl-alanyl-prolyl-alanine-p-nitroanilide (Boc-AAPAN).
To prepare substrate, the solid (m.w. 550) was first dissolved in 10.0 ml DMSO. Buffer at pH 7.5 was then added to a final volume of 100 ml.
Crude extract of human polymorphonuclear leukocytes (PMN) containing elastase activity.
Inhibitors (β-lactam derivatives) to be tested dissolved in DMSO just before use.
To 1.0 ml of 0.2 mM Boc-AAPAN in a cuvette, 0.01-0.1 ml of DMSO with or without inhibitor was added. After mixing, a measurement was taken at 410 mμ to detect any spontaneous hydrolysis due to presence of test compound. 0.05 Milliliters of PMN extract was then added and the ΔOD/min at 410 mμ was measured and recorded. Beckman model 35 spectrophotometer was used.
The elastase activity in the crude PMN extract may vary from one preparation to another. A control of each new batch is run, and the volume added in the assay procedure is adjusted according to activity.

[1] abbreviates: Table III, penems, read-out: IC50 (converted).

SMILES strings stand for the structures. Where two headings read alike, the source gives them in different places.

The term IC50 denotes the concentration needed to halve the response being measured. For the compound `CC1=C(C(=O)OCc2ccccc2)N2C(=O)C[C@H]2S1` [R1 = H, n = 0, M = CH3, B = OCH2 C6 H5, benzyl 2-methylpenem-3-carboxylate], under setting [1], the IC50 was 14.5 µM.

In the case of `CCSC1=C(C(=O)OCc2ccc([N+](=O)[O-])cc2)N2C(=O)C(C(C)OC(=O)OCc3ccccc3)C2S1` (stereo not shown), under setting [1], the IC50 was 0.367 µM.

Take `O=C(O)[C@H]1/C(=C/CO)O[C@@H]2CC(=O)N21` [clavulanic acid, reference compound]: the IC50 entry (Table IV, clavulanic acid series) was “inactive”.

With `O=C(OCc1ccccc1)C1C(=CCO)OC2CC(=O)N21` (stereo not shown) [B1 = CH2 C6 H5], under “Table IV, clavulanic acid series, read-out: IC50 (converted)”, the half-inhibitory concentration (IC50) is 10.4 µM.

On to `CCSC1=C(C(=O)OCc2ccc([N+](=O)[O-])cc2)N2C(=O)C(C(C)O)C2S1` (stereo not shown), for which, under setting [1], the IC50 was 4.87 µM.

In the case of `CCOC1=C(C(=O)OCc2ccccc2)N2C(=O)CC2S1` (stereo not shown), under setting [1], the IC50 is 6.55 µM.

Regarding `COC1C(=O)N2C(C(=O)OCc3ccccc3)=C(COC(C)=O)SC12` (stereo not shown), under setting [1], the IC50 is 11 µM.

The record behind these values is patent publication US4711886A, “β-lactam derivatives as anti-inflammatory and antidegenerative agents” (Merck & Co., Inc., priority 1984, dated 1987).
